Data published in patent publication US6107469A, “Minimum recognition unit of a pem mucin tandem repeat specific monoclonal antibody” (Cancer Therapeutics Limited, priority 1991, dated 2000).
Entries after “also recorded” stand apart in the source; their conditions may differ.

Tested on: immobilised mucin receptor peptide (YVTSAPDTRPAPGST, the epitope sequence from the mucin molecule)
Assay: Equilibrium dialysis binding of I125-labelled EPPT peptides to immobilised mucin receptor peptide
Conditions: 24-48 hours at room temperature, FIGS. 2 and 3
Method: Preparation of immobilised mucin receptor peptide. 7.5 mg of YVTSAPDTRPAPGST (SEQ ID No 18) (the epitope sequence from the mucin molecule) was dissolved in 100 mM sodium phosphate buffer pH8. This was mixed with 7.5 mg of bovine serum albumin (BSA) and made up to 0.5 ml with buffer. 5 μl of 25% glutaraldehye was added, mixed and left to stand at room temperature for 15 minutes. A further 2.5 μl of glutaraldehyde was then added and the mixture left for a further 15 minutes.
Following the incubation, 100 μl of 1M glycine pH6 was added and left for 10 minutes to quench the glutaraldehyde. The reaction mixture was then aliquoted into 100 μl portions and stored at -20° C. until use.
Radiolabelling of EPPT peptides prior to binding assays. Peptides were dissolved in phosphate buffered saline, 100 mM sodium phosphate pH8, or 5% DMSO in sodium phosphate. […] 1 ml fractions were collected from the eluate and assayed for radioactivity.
Binding of EPPT peptides to immobilised mucin receptor peptide. […] Samples are removed from both sides of the membrane and assayed for the presence of radioactivity. […] Following incubation and equilibration, samples were removed from the dialysis module and counted for the presence of I^125. The radioactivity was then converted to amount of peptide for the purposes of determining the amount bound to the immobilised receptor peptide.

H-EPPTRTFAY-OH [EPPTRTFAY, NH2-EPPTRTFAY-COOH]
binding to the mucin receptor peptide: no real binding; also recorded: does not itself appear to bind
